{"source": "patent US6924143B2", "about": "“Method for increasing the growth rate of cells in static liquid media” (priority 2001, dated 2005)", "test_system": "U. maydis wildtype strains", "test": "Growth-assay of U. maydis strains in 384 well MTPs (FIG. 3A, absorbance at OD620)", "format": "cell-based, Ustilago maydis", "details": "Hygromycin B 200 μg/ml, initial OD620 0,18, 1x minimal medium with 0,1% Kelzan, 30° C.", "description": "FIG. 3 illustrates growth-assay of U. maydis strains in 384 well MTPs. • A: The kinetik of the absorbance at OD620 for U. maydis wildtype strains was determined in a 384 well MTP using a Tecan ultra reader (rombus). As control served a strain, to which Hygromycin B was added in a concentration of 200 μg/ml (crosses). The initial OD620 for both strains was 0,18. […] GFP fluorescence of a U. maydis strain, in which GFP expression is controlled by the strong constitutive OMA promoter (squares), was determined in a Tecan plus reader. The excitation wavelength was 485 nm, the emission wavelength was 535 nm. […] Compared to lower temperatures, the increase in OD620 and the increase in fluorescence was faster. Experimental procedures: U. maydis strains where treated as described before in the Examples. The solution contained 1×minimal medium, 0,1% Kelzan and the assay was performed at 30° C. All experiments where repeated in independent duplicates.", "data": [{"smiles": "CN[C@H]1C[C@@H](N)[C@H](O)[C@@H](O[C@@H]2O[C@H](CO)[C@H](O)[C@@H]3OC4(O[C@H]23)O[C@H]([C@@H](N)CO)[C@H](O)[C@H](O)[C@H]4O)[C@@H]1O", "note": "(stereo partly shown) [Hygromycin B]", "values": [{"measurement": "course of optical density (OD620) over time", "result": "continuous decrease in optical density"}]}]}
